Assay results published in PubChem BioAssay (NCI).
“And” between values parts separate entries of the source, which are not always exact repeats. Equal entries are not always repeated.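 Compound exposure: 48 hours, 5 concentrations, 96-well plates. The concentration for 50% growth inhibition is given as GI50. TGI is the concentration that stops growth completely.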

Tests used:
Assay in all cases: NCI-60 cell line screen, 48 h
[1] = tested on: A498 renal
[2] = tested on: HCC-2998 colon
[3] = tested on: KM12 colon
[4] = tested on: MALME-3M melanoma
[5] = tested on: RPMI-8226 leukemia
[6] = tested on: SF-268 CNS
[7] = tested on: SK-OV-3 ovarian
[8] = tested on: SN12C renal
[9] = tested on: TK-10 renal

SMILES	GI50 [1]	TGI [1] [µM]	GI50 [2] [µM]	TGI [2] [µM]	GI50 [3]	TGI [3] [µM]	GI50 [4] [µM]	TGI [4] [µM]	GI50 [5]	TGI [5] [µM]	GI50 [6]	TGI [6] [µM]	GI50 [7]	TGI [7] [µM]	GI50 [8]	TGI [8] [µM]	GI50 [9] [µM]	TGI [9] [µM]
Oc1ccc(Cl)cc1-c1cc(-c2ccccc2Cl)[nH]n1	95.7 µM	> 100	2.86	17.4	2.41 µM	> 100	9.76	> 100	3.15 µM	> 100	7.71 µM	> 100	> 100 µM	> 100	6.32 µM	> 100	29.4	> 100
O=C(O)CCSC(=O)Nc1cccc(F)c1	–	> 100	–	> 100	–	> 100	–	–	–	> 100	–	> 100	–	–	–	> 100	–	> 100
COc1ccccc1NC(=O)CC(=O)n1nc(C)c(N=Nc2ccccc2C(=O)O)c1C	–	> 100	–	> 100	–	> 100	–	> 100	–	> 100	–	> 100	–	> 100	–	> 100	–	> 100
Cc1cnc(NC(=O)C(Cc2ccccc2)NC(=O)c2ccccc2)s1 (stereo unspecified)	31.1 µM	> 100	1.83	5	3.82 µM	14.7	24.2	> 100	2.7 µM	9.04	23.2 µM	54.7	22.9 µM	71.6	3.05 µM	17.5	10.2	30.7
COC(=O)[C@@H](C)C[C@H](Cc1ccc(F)cc1)NC(=O)c1csc([C@@H](C[C@H](C(C)C)N(C)C(=O)[C@@H](NC(=O)[C@H]2CCCCN2C)C(C)C)OC(C)=O)n1	0.00469 µM and 0.0202 µM	0.111	–	> 16.7	0.000953 µM and 0.00636 µM	> 16.7	4.51	> 16.7	0.00108 µM and 0.00682 µM	> 16.7	0.00441 µM and 0.00923 µM	> 16.7	0.00736 µM and 0.0553 µM	> 16.7	0.00197 µM and 0.013 µM	> 16.7	–	–
COC(=O)[C@@]12C3=NO[C@]1(C(=O)OC)C(O[Si](C)(C)C(C)(C)C)[C@H]1OC(C)(C)O[C@H]1[C@@H]2C(OCc1ccccc1)CC3 (stereo partly specified)	–	> 100	–	> 100	–	> 100	–	–	–	> 100	–	–	–	> 100	–	> 100	–	> 100
C=CCc1cc(OC)c2c(c1)C(O)CC(c1ccc(OC)c(OC)c1)O2 (stereo unspecified)	–	–	–	> 100	–	> 100	–	–	–	–	–	> 100	–	> 100	–	> 100	–	> 100
O=c1n(CC2CO2)c(=O)n(CC2CO2)n1CC1CO1 (stereo unspecified)	14.1 µM	29.9	2.17	37.7	31.5 µM	> 100	64.1	> 100	13.6 µM	> 57.8	15.7 µM	> 100	8.37 µM	> 80.2	9.03 µM	> 100	27.9	> 100
O=C1/C(=C/c2ccc([N+](=O)[O-])cc2)COc2ccc(O)c(O)c21	1.71 µM	3.91	1.76	3.38	1.58 µM	3.47	1.84	5.22	0.316 µM	1.01	1.51 µM	3.15	2.98 µM	9.62	1.54 µM	4.19	1.68	3.99
O=C(CSC(=S)N1CCCCC1)Nc1nc2c(s1)CCCC2	–	> 100	–	> 100	–	> 100	–	> 100	–	> 100	–	> 100	–	> 100	–	> 100	–	> 100
CCCCCCCCSC1=CC(=O)c2nc3ccccc3c3ccnc1c23	> 100 µM	> 100	> 100	> 100	> 100 µM	> 100	83.3	> 100	60.2 µM	> 100	24.7 µM	> 100	> 100 µM	> 100	14 µM	> 100	> 100	> 100
COc1ccc2c(c1)C1(C=N2)CCN(C(C)=O)CC1	–	> 100	–	> 100	–	> 100	–	> 100	–	> 100	–	> 100	–	> 100	–	–	–	> 100
CSCCCN(CCCSC)CCCSC	–	–	–	> 100	–	> 100	–	–	–	–	–	> 100	–	> 100	–	> 100	–	–
O=[S@@]1Nc2ccc(Br)cc2S1	–	–	–	–	–	> 100	–	> 100	–	> 100	–	> 100	–	> 100	–	> 100	–	> 100
CCOC(=O)COc1cccc2c1C(=O)CCO2	–	> 100	–	> 100	–	> 100	–	> 100	–	> 100	–	> 100	–	> 100	–	> 100	–	> 100
COc1cccc(NC(=O)CC(=O)n2nc(C)c(N=Nc3ccccc3)c2C)c1	–	> 100	–	> 100	–	> 100	–	> 100	–	> 100	–	> 100	–	> 100	–	> 100	–	> 100
